Experimental data reported in patent publication US10758499B2, “Dermatitis treatment” (Avexxin AS, priority 2012, dated 2020).

Legend:
[1] = system: oxazolone-induced delayed-type-hypersensitivity (DTH) responses; assay: oxazolone-induced ear edema model (delayed-type-hypersensitivity) in mice, therapeutic topical treatment; format: in vivo, mice (female BALB/c); conditions: for Relative oxazolone specific ear swelling, average: topical 1 h and 7 h after challenge, 24 h after challenge, placebo 95%; for Absolute oxazolone specific ear swelling, average: topical on right ear 1 h and 7 h after challenge, measured 24 h after challenge, placebo 217 μm
Procedure: DTH can be induced by skin sensitization with oxazolone, followed by a topical ear challenge with oxazolone 7 days later. This challenge results in development of an inflammatory response in the ear within 24 hours, which is dependent on antigen-specific T cells. The DTH reaction is associated with the recruitment of a variety of inflammatory cells and development of edema. The latter can be measured by quantifying changes in ear thickness before and after ear challenge. The oxazolone-induced ear edema model in mice is therefore a model of delayed contact hypersensitivity that permits the quantitative evaluation of the topical and systemic anti-inflammatory activity of a compound following topical administration. Female mice (6-8 wks—BALB/c) were acclimatization for 7 days in 12 hours light/12 hours dark cycle, at Temperature: 20-24° C., humidity: 55%±10%, on a standard laboratory mouse diet. Day 0: Mice were anesthetized by inhalation of 3-4% isoflurane in a 1:1 mixture of oxygen and medical air. The abdominal skin was shaved to enable topical application of 100 μl 1.5% (w/v) oxazolone in 100% acetone. Day 7: All ears were wiped with ethanol to optimize exposure to oxazolone. Subsequently, the right ear of the sensitized animals were challenged by topical administration of 20 μl (10 μl on each side of the ear) 2.5% (w/v) oxazolone in 100% ethanol. The left ears were treated with 20 μl 100% ethanol. Day 8: After 24 hours, mice were sacrificed and the right ears were collected to enable analysis by (immuno)-histochemistry and/or histology. The vehicle used to carry AVX001 was paraffin. The placebo was paraffin. Approx 20 μl (10 μl on each side of the right ear) of composition is applied to effect the test. 4 groups (8 mice per group) were studied. Group 1: Placebo, 1 hour and 7 hours after challenge Group 2: Compound 0.2 wt %, 1 hour and 7 hours after challenge Group 3: Compound 0.05 wt %, 1 hour and 7 hours after challenge Group 4: Compound 0.01 wt %, 1 hour and 7 hours after challenge Day 7: Ear thickness of both ears was measured directly before the ear-challenge (5 measurements per ear) using a Mitutoyo micrometer (accuracy 0.01 mm). Day 8: 24 Hours after challenge, thickness of left and right ears was measured again. The increase in ear thickness of each ear was calculated by subtracting the mean ear thickness measured on day 7 (before challenge) from the thickness on day 8 (24 hrs after challenge). To determine the oxazolone specific increase in ear thickness, the calculated increase in ear thickness of the left ear was subtracted from that of the right ear. Both absolute (Delta μm) and relative (%) increases in ear thickness were calculated. Increase in ear thickness (Delta μm): Thickness day 8 (μm)−Thickness day 7 (μm) Oxazolone specific increase (Delta μm): Increase right ear (Delta μm)−Increase left ear (Delta μm) Relative increase in ear thickness (%): (Increase in ear thickness (Delta μm)/Thickness day 7 (μm))*100% Relative oxazolone specific increase in ear thickness (%): Relative increase right ear (%)−Relative increase left ear (%) Data of groups was examined by one-way analysis of variance, and individual groups were then compared with Dunnets test or Students t-test. Data was given as mean±SD, if not stated otherwise. Values of p<0.05 were considered significant.

[2] = target: T1, group IVa PLA2 enzyme (Mus musculus, UniProt P47713); assay: PGE2 EIA analysis of ear tissue homogenates after treatment; format: in vivo, mice; conditions: treated versus paraffin placebo ear tissue, right ear biopsies
T1 construct: the right ear biopsies were homogenized in 400 μl lysisbuffer; from tissue; host or cells: mouse ear tissue (in vivo treatment, ear biopsies homogenised)
T1 sequence (P47713 1-748): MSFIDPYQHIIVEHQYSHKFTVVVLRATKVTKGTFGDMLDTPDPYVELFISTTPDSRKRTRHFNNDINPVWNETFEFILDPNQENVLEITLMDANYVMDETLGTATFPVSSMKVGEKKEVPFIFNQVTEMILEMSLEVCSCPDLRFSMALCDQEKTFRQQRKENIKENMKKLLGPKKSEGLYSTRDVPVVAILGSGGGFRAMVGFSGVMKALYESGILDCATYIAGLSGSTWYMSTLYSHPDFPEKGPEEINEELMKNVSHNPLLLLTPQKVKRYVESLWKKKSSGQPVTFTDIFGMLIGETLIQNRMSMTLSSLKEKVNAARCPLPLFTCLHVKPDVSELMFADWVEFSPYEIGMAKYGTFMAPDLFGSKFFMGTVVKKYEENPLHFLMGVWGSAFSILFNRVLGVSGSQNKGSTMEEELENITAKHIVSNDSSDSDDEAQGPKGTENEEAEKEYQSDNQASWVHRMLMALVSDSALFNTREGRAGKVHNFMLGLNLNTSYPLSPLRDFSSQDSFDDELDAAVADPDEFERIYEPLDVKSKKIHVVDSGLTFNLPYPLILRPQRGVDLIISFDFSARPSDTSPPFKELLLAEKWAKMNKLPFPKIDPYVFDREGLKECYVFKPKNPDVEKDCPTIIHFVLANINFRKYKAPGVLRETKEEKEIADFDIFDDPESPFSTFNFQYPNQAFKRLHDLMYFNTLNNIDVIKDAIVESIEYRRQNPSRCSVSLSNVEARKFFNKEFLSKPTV
Procedure: Using a PreCellys homogenisator, the right ear biopsies were homogenized in 400 μl lysisbuffer containing 10 μM indomethasin. The lysate was stored at −80° C. until further processing. PGE2 EIA analysis ear homogenates was performed according to kit protocol (Cayman Chemicals). Plasma samples were diluted 1:60 and 1:180 in EIA buffer. The samples were hybridized over-night (18 hrs, 4° C.). The EIA plates were read using a Multiscan plate reader (Ascent Labsystems, OD550 nm). Ascent software for Multiscan, Version 2.4.1 was used to obtain the data. PGE2 results are shown as mean±SD relative to the paraffin-treated placebo mice (n=5 mice).
Data of groups was examined by one-way analysis of variance, and individual groups were then compared with Dunnets test or Students t-test. Data was given as mean±SD, if not stated otherwise. Values of p<0.05 were considered significant.

reduction in ear tissue PGE2 concentration [2]: 20%
Compound: CC/C=C\C/C=C\C/C=C\C/C=C\CC/C=C/CSCC(=O)C(F)(F)F [AVX001]
Relative oxazolone specific ear swelling, average ([1]; AVX001 0.01% in paraffin): 58% | Absolute oxazolone specific ear swelling, average ([1]; AVX001 0.01% in paraffin): 134 μm | Relative oxazolone specific ear swelling, average ([1]; AVX001 0.05% in paraffin): 43% | Absolute oxazolone specific ear swelling, average ([1]; AVX001 0.05% in paraffin): 103 μm | Relative oxazolone specific ear swelling, average ([1]; AVX001 0.2% in paraffin): 42% | Absolute oxazolone specific ear swelling, average ([1]; AVX001 0.2% in paraffin): 94 μm | reduction of the oxazolone specific ear swelling (result in words) ([1]; all concentrations (0.01%, 0.05%, 0.2%), topical, versus placebo): statistically significant for all concentrations
